Laboratory results: PMC8364686, “Safety, tolerability, pharmacokinetics and pharmacodynamics of single oral doses of BI 187004, an inhibitor of 11beta-hydroxysteroid dehydrogenase-1, in healthy male volunteers with overweight or obesity” (Clinical Diabetes and Endocrinology, 2021)

Tested on: hypothalamus–pituitary–adrenal axis hormones
Assay: Hormones of the HPA axis: difference from baseline
Format: in vivo, human
Procedure: Safety and tolerability of BI 187004 were assessed in a descriptive way using the following investigations: recording of adverse events, clinical laboratory parameters (haematology, coagulation, enzymes, substrates, electrolytes, hormones, and urinalysis), vital signs (blood pressure, puls rate), 12-lead ECG (electrocardiogram) with special attention to QTc prolongation, and physical examination (occurrence of findings).

For `N#Cc1ccc2c(c1)[C@H]1CCCN(C(=O)c3ccc4[nH]cnc4c3)[C@H]1C2` [BI 187004], the “ACTH mean difference from baseline” value (2.5 mg single oral dose, 24:00) was 0.59 pmol/L, the “Androstenedione mean difference from baseline” value (from here on “Androstenedione mean difference”) (2.5 mg single oral dose, 24:00) was 0.2 nmol/L and the “Cortisol mean difference from baseline” value (2.5 mg single oral dose, 24:00) was -77.1 nmol/L. For the same molecule, the “DHEA-s mean difference from baseline” value (2.5 mg single oral dose, 24:00) was 0.7 µmol/L, the “SHBG mean difference from baseline” value (2.5 mg single oral dose, 24:00) was 2.6 nmol/L and the “Total Testosterone mean difference from baseline” value (2.5 mg single oral dose, 24:00) was 0.1 nmol/L. For the same molecule, the “ACTH mean difference from baseline” value (2.5 mg single oral dose, 96:00) was -0.46 pmol/L, the “Androstenedione mean difference” value (2.5 mg single oral dose, 96:00) was -1.8 nmol/L and the “Cortisol mean difference from baseline” value (2.5 mg single oral dose, 96:00) was -65.3 nmol/L. The “DHEA-s mean difference from baseline” value (2.5 mg single oral dose, 96:00) was 2.1 µmol/L, the “SHBG mean difference from baseline” value (2.5 mg single oral dose, 96:00) was -0.1 nmol/L and the “Total Testosterone mean difference from baseline” value (2.5 mg single oral dose, 96:00) was -0.3 nmol/L. For the same molecule, the “ACTH mean difference from baseline” value (5 mg single oral dose, 24:00) was 0.53 pmol/L, the “Androstenedione mean difference” value (5 mg single oral dose, 24:00) was 1.2 nmol/L and the “Cortisol mean difference from baseline” value (5 mg single oral dose, 24:00) was 1.8 nmol/L. For the same molecule, the “DHEA-s mean difference from baseline” value (5 mg single oral dose, 24:00) was 1.6 µmol/L, the “SHBG mean difference from baseline” value (5 mg single oral dose, 24:00) was 3.0 nmol/L and the “Total Testosterone mean difference from baseline” value (5 mg single oral dose, 24:00) was -0.9 nmol/L. For the same molecule, the “ACTH mean difference from baseline” value (5 mg single oral dose, 96:00) was -1.65 pmol/L, the “Androstenedione mean difference” value (5 mg single oral dose, 96:00) was -3.7 nmol/L and the “Cortisol mean difference from baseline” value (5 mg single oral dose, 96:00) was -75.0 nmol/L. The “DHEA-s mean difference from baseline” value (5 mg single oral dose, 96:00) was 0.9 µmol/L, the “SHBG mean difference from baseline” value (5 mg single oral dose, 96:00) was 2.7 nmol/L and the “Total Testosterone mean difference from baseline” value (5 mg single oral dose, 96:00) was -0.7 nmol/L. The “ACTH mean difference from baseline” value (10 mg single oral dose, 24:00) was 0.78 pmol/L, the “Androstenedione mean difference” value (10 mg single oral dose, 24:00) was 1.3 nmol/L and the “Cortisol mean difference from baseline” value (10 mg single oral dose, 24:00) was -78.7 nmol/L. For the same molecule, the “DHEA-s mean difference from baseline” value (10 mg single oral dose, 24:00) was 1.2 µmol/L, the “SHBG mean difference from baseline” value (10 mg single oral dose, 24:00) was 3.4 nmol/L and the “Total Testosterone mean difference from baseline” value (10 mg single oral dose, 24:00) was -0.2 nmol/L. The “ACTH mean difference from baseline” value (10 mg single oral dose, 96:00) was -1.35 pmol/L, the “Androstenedione mean difference” value (10 mg single oral dose, 96:00) was -3.4 nmol/L and the “Cortisol mean difference from baseline” value (10 mg single oral dose, 96:00) was -128.8 nmol/L. The “DHEA-s mean difference from baseline” value (10 mg single oral dose, 96:00) was 1.9 µmol/L, the “SHBG mean difference from baseline” value (10 mg single oral dose, 96:00) was 0.2 nmol/L and the “Total Testosterone mean difference from baseline” value (10 mg single oral dose, 96:00) was -2.0 nmol/L. The “ACTH mean difference from baseline” value (20 mg single oral dose, 24:00) was 1.53 pmol/L, the “Androstenedione mean difference” value (20 mg single oral dose, 24:00) was 3.7 nmol/L and the “Cortisol mean difference from baseline” value (20 mg single oral dose, 24:00) was 18.4 nmol/L. The “DHEA-s mean difference from baseline” value (20 mg single oral dose, 24:00) was 2.2 µmol/L, the “SHBG mean difference from baseline” value (20 mg single oral dose, 24:00) was 2.9 nmol/L and the “Total Testosterone mean difference from baseline” value (20 mg single oral dose, 24:00) was -1.3 nmol/L. For the same molecule, the “ACTH mean difference from baseline” value (20 mg single oral dose, 96:00) was -0.58 pmol/L, the “Androstenedione mean difference” value (20 mg single oral dose, 96:00) was 3.8 nmol/L and the “Cortisol mean difference from baseline” value (20 mg single oral dose, 96:00) was -34.1 nmol/L. The “DHEA-s mean difference from baseline” value (20 mg single oral dose, 96:00) was 2.1 µmol/L, the “SHBG mean difference from baseline” value (20 mg single oral dose, 96:00) was 1.3 nmol/L and the “Total Testosterone mean difference from baseline” value (20 mg single oral dose, 96:00) was -1.0 nmol/L. For the same molecule, the “ACTH mean difference from baseline” value (40 mg single oral dose, 24:00) was 1.44 pmol/L, the “Androstenedione mean difference” value (40 mg single oral dose, 24:00) was 3.7 nmol/L and the “Cortisol mean difference from baseline” value (40 mg single oral dose, 24:00) was -48.8 nmol/L. For the same molecule, the “DHEA-s mean difference from baseline” value (40 mg single oral dose, 24:00) was 1.7 µmol/L, the “SHBG mean difference from baseline” value (40 mg single oral dose, 24:00) was 0.6 nmol/L and the “Total Testosterone mean difference from baseline” value (40 mg single oral dose, 24:00) was -0.5 nmol/L. For the same molecule, the “ACTH mean difference from baseline” value (40 mg single oral dose, 96:00) was -0.01 pmol/L, the “Androstenedione mean difference” value (40 mg single oral dose, 96:00) was 0.1 nmol/L and the “Cortisol mean difference from baseline” value (40 mg single oral dose, 96:00) was -75.5 nmol/L. For the same molecule, the “DHEA-s mean difference from baseline” value (40 mg single oral dose, 96:00) was 2.3 µmol/L, the “SHBG mean difference from baseline” value (40 mg single oral dose, 96:00) was -1.8 nmol/L and the “Total Testosterone mean difference from baseline” value (40 mg single oral dose, 96:00) was -0.8 nmol/L. The “ACTH mean difference from baseline” value (80 mg single oral dose, 24:00) was 4.69 pmol/L, the “Androstenedione mean difference” value (80 mg single oral dose, 24:00) was 8.1 nmol/L and the “Cortisol mean difference from baseline” value (80 mg single oral dose, 24:00) was 102.6 nmol/L. The “DHEA-s mean difference from baseline” value (80 mg single oral dose, 24:00) was 2.6 µmol/L, the “SHBG mean difference from baseline” value (80 mg single oral dose, 24:00) was 2.1 nmol/L and the “Total Testosterone mean difference from baseline” value (80 mg single oral dose, 24:00) was 0.8 nmol/L. The “ACTH mean difference from baseline” value (80 mg single oral dose, 96:00) was 1.36 pmol/L, the “Androstenedione mean difference” value (80 mg single oral dose, 96:00) was 0.5 nmol/L and the “Cortisol mean difference from baseline” value (80 mg single oral dose, 96:00) was -64.4 nmol/L. For the same molecule, the “DHEA-s mean difference from baseline” value (80 mg single oral dose, 96:00) was 2.4 µmol/L, the “SHBG mean difference from baseline” value (80 mg single oral dose, 96:00) was -1.3 nmol/L and the “Total Testosterone mean difference from baseline” value (80 mg single oral dose, 96:00) was 0.6 nmol/L. For the same molecule, the “ACTH mean difference from baseline” value (160 mg single oral dose, 24:00) was 1.34 pmol/L, the “Androstenedione mean difference” value (160 mg single oral dose, 24:00) was 2.6 nmol/L and the “Cortisol mean difference from baseline” value (160 mg single oral dose, 24:00) was -49.2 nmol/L. The “DHEA-s mean difference from baseline” value (160 mg single oral dose, 24:00) was 1.6 µmol/L.
